{"source": "patent US10702506B2", "about": "“Small molecule inhibitors of pendrin ion exchange and pharmaceutical compositions” (THE REGENTS OF THE UNIVERSITY OF CALIFORNIA, priority 2016, dated 2020)", "molecular_target": "T1, CFTR (Homo sapiens, UniProt P13569)", "T1 construct": "endogenous in cells; host or cells: IL-13-treated primary HBE cell cultures (HBE = non-CF donors)", "T1 sequence (P13569 whole entry)": "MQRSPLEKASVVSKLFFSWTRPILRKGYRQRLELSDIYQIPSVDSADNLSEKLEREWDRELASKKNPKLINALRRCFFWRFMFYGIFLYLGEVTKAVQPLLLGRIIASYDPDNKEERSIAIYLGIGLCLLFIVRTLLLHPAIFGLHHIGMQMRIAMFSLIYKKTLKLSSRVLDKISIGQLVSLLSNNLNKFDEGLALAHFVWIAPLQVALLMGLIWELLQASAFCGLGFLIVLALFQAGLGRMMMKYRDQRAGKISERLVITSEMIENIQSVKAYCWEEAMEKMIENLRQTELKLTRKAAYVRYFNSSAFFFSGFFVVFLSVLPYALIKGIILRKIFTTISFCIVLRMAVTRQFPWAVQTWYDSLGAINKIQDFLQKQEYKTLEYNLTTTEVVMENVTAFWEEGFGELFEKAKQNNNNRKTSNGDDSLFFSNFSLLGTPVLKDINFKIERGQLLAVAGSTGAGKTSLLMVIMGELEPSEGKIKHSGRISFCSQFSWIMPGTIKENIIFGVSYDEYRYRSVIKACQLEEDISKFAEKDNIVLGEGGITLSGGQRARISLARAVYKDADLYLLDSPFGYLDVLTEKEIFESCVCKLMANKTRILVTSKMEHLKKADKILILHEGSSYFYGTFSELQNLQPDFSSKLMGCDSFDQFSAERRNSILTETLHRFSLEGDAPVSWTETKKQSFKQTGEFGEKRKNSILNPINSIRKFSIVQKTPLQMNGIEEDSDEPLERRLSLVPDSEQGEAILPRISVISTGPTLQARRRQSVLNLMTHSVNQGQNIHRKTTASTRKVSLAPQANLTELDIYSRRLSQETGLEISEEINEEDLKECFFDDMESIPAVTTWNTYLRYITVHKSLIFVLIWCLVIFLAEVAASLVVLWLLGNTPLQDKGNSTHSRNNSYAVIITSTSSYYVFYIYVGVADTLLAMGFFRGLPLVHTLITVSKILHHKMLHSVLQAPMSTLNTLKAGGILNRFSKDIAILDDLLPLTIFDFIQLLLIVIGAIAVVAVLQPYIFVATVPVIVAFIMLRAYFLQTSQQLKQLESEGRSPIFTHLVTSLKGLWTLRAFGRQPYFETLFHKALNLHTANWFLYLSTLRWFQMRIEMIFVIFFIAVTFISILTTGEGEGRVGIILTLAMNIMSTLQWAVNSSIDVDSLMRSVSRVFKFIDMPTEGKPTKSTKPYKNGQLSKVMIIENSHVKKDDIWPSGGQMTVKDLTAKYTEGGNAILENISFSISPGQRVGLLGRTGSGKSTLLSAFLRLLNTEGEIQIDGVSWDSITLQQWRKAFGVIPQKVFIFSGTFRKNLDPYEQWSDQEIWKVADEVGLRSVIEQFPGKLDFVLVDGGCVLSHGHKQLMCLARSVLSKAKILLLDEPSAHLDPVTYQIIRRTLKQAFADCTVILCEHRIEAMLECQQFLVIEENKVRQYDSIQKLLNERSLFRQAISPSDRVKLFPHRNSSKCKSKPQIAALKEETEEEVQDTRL", "assay": "Short-circuit current (Isc) analysis in IL-13-treated HBE cells, forskolin / CFTRinh-172 response", "assay_type": "cell-based", "conditions": "25 μM, 30 min pre-treatment", "experimental": "Further experiments were done with PDSinh-A01 because of its greater inhibition potency for Cl^−/HCO3^− exchange than PDSinh-C01. To investigate PDSinh-A01 specificity, the major ion transport pathways in HBE cells were studied by short-circuit current (Isc) analysis. Cells were treated with IL-13 to increase Ca^2+-activated Cl^− conductance (CaCC) activity. For Isc measurements, cells were sequentially treated with amiloride to inhibit the epithelial sodium channel (ENaC), forskolin to activate the cystic fibrosis transmembrane conductance regulator (CFTR), CFTRinh-172 to inhibit CFTR, and ATP to activate CaCC. In the absence of PDSinh-A01, ion channel modulators produced the anticipated changes in Isc (FIG. 4A).\nIL-13-treated HBE cells were cultured on Snapwell clear permeable supports (12 mm diameter, 0.4 μm polyester membrane, Costar, Corning, Corning, N.Y.). Short-circuit current was measured using symmetrical HCO3^−-buffered solutions (in mM: 120 NaCl, 5 KCl, 1 MgCl2, 1 CaCl2, 5 Hepes, 25 NaHCO3; pH 7.4) as described, with ion transport modulators added to both apical and basolateral bathing solutions. Cells were equilibrated with 95% O2/5% CO2 and maintained at 37° C. during data acquisition. Statistical analysis was by Student's t-test.", "data": [{"smiles": "Cn1nc(COc2cccc(F)c2)c2c1CCN(C(=O)Nc1ccc(Cl)cc1)C2", "note": "[PDSinh-A01]", "values": [{"measurement": "effect on CFTR activity (Isc response)", "value": "did not affect the activity"}]}]}
